# From the supplement of paper PMC10307832
# Key:
# Assay in all cases: relative viability (nuclei count vs DMSO), 5 days (fraction); higher = more cells survive
# [1] = compound: O=C(CCCCCCC(=O)Nc1ccccc1)NO [Vorinostat] + CCNC(=O)c1noc(-c2cc(C(C)C)c(O)cc2O)c1-c1ccc(CN2CCOCC2)cc1 [Luminespib] (partner 0.01 µM)
# Procedure, shortened: (§1)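 Cells from lung cancer lines were seeded into 1536-well plates and, one day later, dosed by pin tool. Treatments were either a single drug or a fixed dose of an anchor drug with five library-drug doses (not always all listed) in √10 steps. After 5 days, nuclei were stained in a one-step fixation (final 0.05% Triton X-100, 1% formaldehyde, 1 ug/ml Hoechst) and counted on 4× images, and relative viability is the treated-to-vehicle nuclei ratio, as the median of duplicate plates.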
# [2] = compound: O=C(CCCCCCC(=O)Nc1ccccc1)NO [Vorinostat] + CC(=O)Nc1cccc(-n2c(=O)n(C3CC3)c(=O)c3c(Nc4ccc(I)cc4F)n(C)c(=O)c(C)c32)c1 [Trametinib] (partner 0.02 µM)
# Procedure, shortened: as §1
# [3] = compound: O=C(CCCCCCC(=O)Nc1ccccc1)NO [Vorinostat] + Nc1nc2[nH]cc(CCc3ccc(C(=O)N[C@@H](CCC(=O)O)C(=O)O)cc3)c2c(=O)[nH]1 [Pemetrexed] (partner 0.2 µM)
# Procedure, shortened: as §1
# [4] = compound: O=C(CCCCCCC(=O)Nc1ccccc1)NO [Vorinostat] + CS(=O)(=O)CCNCc1ccc(-c2ccc3ncnc(Nc4ccc(OCc5cccc(F)c5)c(Cl)c4)c3c2)o1 [Lapatinib] (partner 2 µM)
# Procedure, shortened: as §1
Cell Line,relative viability ([1]; first compound 0.253 µM),relative viability ([1]; first compound 0.8 µM),relative viability ([1]; first compound 2.53 µM),relative viability ([1]; first compound 8 µM),relative viability ([2]; first compound 0.253 µM),relative viability ([2]; first compound 0.8 µM),relative viability ([2]; first compound 2.53 µM),relative viability ([2]; first compound 8 µM),relative viability ([3]; first compound 0.253 µM),relative viability ([3]; first compound 0.8 µM),relative viability ([3]; first compound 2.53 µM),relative viability ([3]; first compound 8 µM),relative viability ([4]; first compound 0.253 µM),relative viability ([4]; first compound 0.8 µM),relative viability ([4]; first compound 2.53 µM),relative viability ([4]; first compound 8 µM)
NCI-H1437,1.14,1.07,0.712,0.187,0.481,0.368,0.23,0.155,0.308,0.3,0.187,0.151,0.846,0.476,0.153,0.0924
NCI-H2126,0.832,0.977,0.403,0.175,0.612,0.533,0.296,0.166,0.776,0.666,0.419,0.208,0.75,0.733,0.562,0.22
NCI-H460,0.0445,0.0295,0.0322,0.0199,0.231,0.0799,0.0298,0.0227,0.0729,0.064,0.0548,0.0231,1.35,0.742,0.0269,0.0111
CAL-12T,0.555,0.464,0.383,0.134,0.433,0.499,0.223,0.0898,1.36,1.31,1.08,0.126,0.682,0.649,0.438,0.111
SK-LU-1,0.21,0.234,0.176,0.196,0.495,0.474,0.41,0.205,0.936,0.807,0.64,0.179,1.05,0.738,0.449,0.16
NCI-H596,0.933,1.05,0.476,0.265,0.876,0.632,0.426,0.235,0.503,0.465,0.412,0.346,1.26,0.971,0.781,0.307
LCLC-97TM1,0.819,0.704,0.299,0.122,0.238,0.207,0.142,0.074,0.155,0.149,0.146,0.0924,,0.784,1.49,0.115
NCI-H1993,0.874,0.831,0.656,0.4,0.649,0.61,0.548,0.36,0.594,0.492,0.503,0.344,0.959,1,0.579,0.399
IA-LM,,,,,,,,,,,,,0.765,0.636,0.247,0.073
A-427,1.03,0.892,0.339,0.158,0.82,0.718,0.361,0.166,1.02,0.925,0.433,0.196,1.1,1.05,0.929,0.23
NCI-H2170,0.894,0.692,0.577,0.171,0.926,0.921,0.578,0.108,0.249,0.242,0.222,0.114,0.283,0.273,0.238,0.198
NCI-H1915,0.792,0.761,0.18,0.0892,0.36,0.291,0.227,0.101,0.531,0.494,0.371,0.102,1.03,0.962,0.673,0.0743
NCI-H23,0.197,0.25,0.191,0.164,0.606,0.405,0.166,0.129,0.842,0.713,0.32,0.181,1.24,1.03,0.344,0.141
NCI-H727,0.25,0.378,0.311,0.341,0.369,0.392,0.27,0.267,,,,,0.632,0.736,0.335,0.227
EPLC-272H,0.497,0.195,0.273,0.158,0.296,0.269,0.168,0.11,0.367,0.381,0.212,0.159,0.788,0.761,0.278,0.14
LU99A,0.291,0.26,0.141,0.121,0.614,0.54,0.33,0.138,0.14,0.182,0.162,0.112,1.01,0.871,0.315,0.169
201T,1.1,1.09,0.82,0.281,0.734,0.735,0.69,0.267,0.327,0.323,0.253,0.25,1.05,0.954,0.929,0.567
LCLC-103H,0.987,0.939,0.185,0.145,0.804,0.7,0.473,0.337,0.471,0.425,0.452,0.32,,,,
HCC-827,0.655,0.641,0.257,0.168,0.712,0.642,0.351,0.163,0.269,0.278,0.212,0.153,0.219,0.204,0.155,0.161
NCI-H441,0.485,0.423,0.194,0.162,0.555,0.602,0.226,0.127,0.252,0.232,0.253,0.143,,,,
ABC-1,1.19,0.284,0.239,0.187,,,,,,,,,1.14,1.12,1.13,0.27
NCI-H1563,0.587,0.496,0.433,0.416,,,,,0.877,0.651,0.708,0.384,1.01,0.796,0.403,0.564
SW 900,0.172,0.161,0.16,0.133,0.739,0.703,0.249,0.129,0.502,0.483,0.308,0.147,,,,
